Laboratory results: publication PMC6349357, “Computational and experimental analysis of bioactive peptide linear motifs in the integrin adhesome” (PLoS ONE, 2019)
Marks after values point to notes of the source that are not given here.

Legend:
[1] = system: resting platelets; assay: Platelet aggregation induced by peptide in resting washed platelets (activation); assay type: cell-based, human (healthy volunteers); conditions: for Activation, 5μM / Activation, 20μM: S3 Table, n=3; for Activation, 5μM: peptide 5 μM; for Activation, 20μM: peptide 20 μM; for Activation: platelet aggregation in resting platelets after 6 minutes incubation with peptide, pal-peptides 20 μM, tat-peptides 50 μM, optical density, aggregometer, mean, n>=3; for Aggregation before TRAP activation, donor h: replicate donor h; for Aggregation before TRAP activation, donor h / Aggregation before TRAP activation, donor i / Aggregation before TRAP activation, donor j: pal 20 μM, tat 50 μM; for Aggregation before TRAP activation, donor i: replicate donor i; for Aggregation before TRAP activation, donor j: replicate donor j
Method: (§1) Blood was drawn from healthy volunteers into a syringe containing a final volume of 15% Acid Citrate Dextrose (ACD). The blood/ACD mixture was then aliquoted into 15 ml Cellstar tubes, at volumes of 5ml per tube, and centrifuged at 150 rcf for 10 minutes to obtain platelet rich plasma (PRP). PRP was then transferred to a 50ml tube using a pipette. The pH was then adjusted to 6.5. Prostaglandin (PGE1) was then added with a final concentration of 1μM. The PRP was then centrifuged at 750 rcf. After centrifugation the platelet poor plasma (PPP) was discarded and the pellet was resuspended in buffer A (6 mM dextrose, 130 mM NaCl, 9 mM NaHCO3, 10 mM sodium citrate, 10 mM Tris base, 3 mM KCl, 0.81 mM KH2PO4 and 0.9 mM MgCl26H2O, pH 7.4). A platelet concentration of 3x10^5/μl or 1x10^6/μl was obtained by dilution depending on the experiment in which they were used. Platelets were left to rest for 45 minutes and supplemented with 1.8mM calcium chloride prior to use.
(§2) A platelet concentration of 3x10^5 /μl was used when performing standard aggregations and a concentration of 1x10^6 /μl was used for sample preparation for western blot analysis. The extent of platelet aggregation was measured by quantifying the optical density of the samples using the Bio-Data PAP-8 aggregometer (platelet aggregation profiler, Horsham, PA, USA). A temperature of 37°C was maintained and samples were stirred using magnets spinning at 1100 rpm. 200 μl of washed platelets was added to each aggregation tube. Different volumes of buffer, peptide and TRAP were added to achieve the desired concentrations. Peptide/buffer was added to each well after two minutes. TRAP, with a final concentration depending on the experiment, was added 6 minutes later and data was collected for an additional 7 minutes.

[2] = system: TRAP-activated platelets; assay: Inhibition of TRAP-induced platelet aggregation after pre-incubation with peptide; assay type: cell-based, human (healthy volunteers); conditions: for Aggregation after TRAP activation, donor h: replicate donor h; for Aggregation after TRAP activation, donor h / Aggregation after TRAP activation, donor i / Aggregation after TRAP activation, donor j: pal 20 μM, tat 50 μM; for Aggregation after TRAP activation, donor i: replicate donor i; for Aggregation after TRAP activation, donor j: replicate donor j
Method: as §1, §2

[3] = S3 Table, peptide 5 μM, aggregation after TRAP, n=3
[4] = S3 Table, peptide 20 μM, aggregation after TRAP, n=3
[5] = platelet aggregation induced by 4 μM TRAP in platelets pre-incubated with peptide (low value = inhibition), pal-peptides 20 μM, tat-peptides 50 μM, mean, n>=3

Substance: pal-KVGAAKR-WEQLLTTIARTINEVENQI [B13p ITGA2b-JM2 U ACTN1-VBS, palmitylated chimeric peptide]
- Activation, 5μM ([1]; unit assumed): 3%
- Activation, 20μM ([1]; unit assumed): 12%
- Platelet aggregation remaining after TRAP (low = inhibition) [2, 3]: 75
- Platelet aggregation remaining after TRAP (low = inhibition) [2, 4]: 63

Substance: pal-KVGFFKR-FAKFEEERAR [B15p ITGA2b-JM U ITGB3-middle1, palmitylated chimeric peptide]
- Activation, 5μM ([1]; unit assumed): 2%
- Activation, 20μM ([1]; unit assumed): 4%
- Platelet aggregation remaining after TRAP (low = inhibition) [2, 3]: 72
- Platelet aggregation remaining after TRAP (low = inhibition) [2, 4]: 71

Substance: pal-KVGFFKR-LGKKPIYKK [B18p ITGA2b-JM U SDC4-middle, palmitylated chimeric peptide]
- Activation, 5μM ([1]; unit assumed): 61%
- Activation, 20μM ([1]; unit assumed): 13%
- Platelet aggregation remaining after TRAP (low = inhibition) [2, 3]: 65
- Platelet aggregation remaining after TRAP (low = inhibition) [2, 4]: 27

Substance: pal-KVGFFKR-RMKKKDEGSYD [B17p ITGA2b-JM2 U SDC4-JM, palmitylated chimeric peptide]
- Activation, 5μM ([1]; unit assumed): 1%
- Activation, 20μM ([1]; unit assumed): 2%
- Platelet aggregation remaining after TRAP (low = inhibition) [2, 3]: 66
- Platelet aggregation remaining after TRAP (low = inhibition) [2, 4]: 11

Substance: pal-KVGFFKR-TLELDRLMASLS [B20p ITGA2b-JM U TGFB1I1-LD, palmitylated chimeric peptide]
- Activation, 5μM ([1]; unit assumed): 2%
- Activation, 20μM ([1]; unit assumed): 2%
- Platelet aggregation remaining after TRAP (low = inhibition) [2, 3]: 71
- Platelet aggregation remaining after TRAP (low = inhibition) [2, 4]: 66

Substance: pal-KVGFFKR-WEQLLTTIARTINEVENQI [B12p ITGA2b-JM U ACTN1-VBS, palmitylated chimeric peptide]
- Activation, 5μM ([1]; unit assumed): 1%
- Activation, 20μM ([1]; unit assumed): 7%
- Platelet aggregation remaining after TRAP (low = inhibition) [2, 3]: 74
- Platelet aggregation remaining after TRAP (low = inhibition) [2, 4]: 66

Substance: pal-LGKKPIYKK-(NH2) [pal-SDC4_middle, N-terminally palmitylated syndecan-4 middle (variable) region peptide]
- Activation, 5μM ([1]; listed as A8p SDC4-middle, unit assumed): 2%
- Activation, 5μM ([1]; listed as Variable (B), unit assumed): 1%
- Activation, 20μM ([1]; unit assumed): 1%
- Activation ([1]; unit assumed): 0%
- Activation, donor 14 06 13 ([1]; replicate 14_06_13, SDC4 peptides and controls, 20 μM, unit assumed): 1%
- Activation, donor 18_06_13 ([1]; replicate 18_06_13, SDC4 peptides and controls, 20 μM, in % (unit assumed)): -1
- Activation, donor 20_06_13 ([1]; replicate 20_06_13, SDC4 peptides and controls, 20 μM, in % (unit assumed)): 2
- Activation, donor 20 08 13 ([1]; replicate 20_08_13, SDC4 peptides and controls, 20 μM, unit assumed): 0%
- Activation, donor 22_08_13_DONOR1 ([1]; replicate 22_08_13_DONOR1, SDC4 peptides and controls, 20 μM): 1
- Activation, donor 22_08_13_DONOR2 ([1]; replicate 22_08_13_DONOR2, SDC4 peptides and controls, 20 μM): 0
- Aggregation before TRAP activation, donor h [1]: 1
- Aggregation before TRAP activation, donor i [1]: 0
- Aggregation before TRAP activation, donor j [1]: 1
- Aggregation (inhibition effects of syndecan-derived peptides) ([2]; S2 Table A, peptide 20 μM, TRAP 4 μM, mean, n=6): 26
- Summary of effects of SDC4-derived palmitylated peptides and scrambled controls, 20μM ([2]; S2 Table B / S2 Fig, 20 μM, activation of resting platelets and inhibition of aggregation induced by 4 μM TRAP, in words): Inhibitor
- Platelet aggregation remaining after TRAP (low = inhibition) ([2]; S3 Table, peptide 5 μM, aggregation after TRAP, n=3, listed as A8p SDC4-middle): 72
- Platelet aggregation remaining after TRAP (low = inhibition) ([2]; S3 Table, peptide 5 μM, aggregation after TRAP, n=3, listed as Variable (B)): 59
- Platelet aggregation remaining after TRAP (low = inhibition) ([2]; S3 Table, peptide 20 μM, aggregation after TRAP, n=3, listed as A8p SDC4-middle): 41
- Platelet aggregation remaining after TRAP (low = inhibition) ([2]; S3 Table, peptide 20 μM, aggregation after TRAP, n=3, listed as Variable (B)): 26
- Aggregation after TRAP, peptide alone 1x (A 1x / B 1x) ([2]; TRAP 2 μM after 6 minutes pre-incubation, 4 μM pal-peptides, 10 μM tat-peptides, mean n = 3): 31.67
- Aggregation after TRAP, peptide alone 2x (A 2x / B 2x) ([2]; TRAP 2 μM after 6 minutes pre-incubation, double concentration of 4 μM (pal) / 10 μM (tat), mean n = 3): 1.67
- Platelet aggregation after TRAP activation [2, 5]: 3 ^*
- Inhibition, donor 14_06_13 ([2]; replicate 14_06_13, peptide 20 μM, TRAP 4 μM): 60
- Inhibition, donor 18_06_13 ([2]; replicate 18_06_13, peptide 20 μM, TRAP 4 μM): 23
- Inhibition, donor 20_06_13 ([2]; replicate 20_06_13, peptide 20 μM, TRAP 4 μM): 51
- Inhibition, donor 20_08_13 ([2]; replicate 20_08_13, peptide 20 μM, TRAP 4 μM): 7
- Platelet aggregation remaining after TRAP (low = inhibition) ([2]; replicate 22_08_13_DONOR1, peptide 20 μM, TRAP 4 μM): 3
- Platelet aggregation remaining after TRAP (low = inhibition) ([2]; replicate 22_08_13_DONOR2, peptide 20 μM, TRAP 4 μM): 14
- Aggregation after TRAP activation, donor h ([2]; TRAP 4 μM): 3
- Aggregation after TRAP activation, donor i ([2]; TRAP 4 μM): 2
- Aggregation after TRAP activation, donor j ([2]; TRAP 4 μM): 4

Substance: pal-NNPLYKEA-(NH2) [pal-ITGB3_middle2, N-terminally palmitylated ITGB3 peptide NNPLYKEA]
- Activation ([1]; unit assumed): 1%
- Aggregation before TRAP activation, donor h [1]: 2
- Aggregation before TRAP activation, donor i [1]: 2
- Aggregation before TRAP activation, donor j [1]: 1
- Platelet aggregation remaining after TRAP (low = inhibition) [2, 5]: 74
- Aggregation after TRAP activation, donor h ([2]; TRAP 4 μM): 74
- Aggregation after TRAP activation, donor i ([2]; TRAP 4 μM): 71
- Aggregation after TRAP activation, donor j ([2]; TRAP 4 μM): 78
